# Tests used:
# human recombinant HDAC1 = molecular target: T1, human recombinant HDAC1 (Homo sapiens, UniProt Q13547); test: HDAC1 enzyme activity inhibition test (HDAC Fluorometric Drug Discovery Kit); format: biochemical; conditions: 30° C., 60 minutes, 10 μM substrate
# T1 construct: purchased Enzo Life Science BML-SE456
# In short: (§1)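 IC50 derived from fluorescence (Ex 360, Em 460) following 30 min development with Developer II. Each reaction held 0.3 μg human recombinant HDAC1 or HDAC6, 10 μM Fluor de Lys SIRT1 substrate and 5-fold serially diluted compound, incubated 60 min at 30 °C.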
# human recombinant HDAC6 = molecular target: T2, human recombinant HDAC6 (Homo sapiens, UniProt Q9UBN7); test: HDAC6 enzyme activity inhibition test (HDAC Fluorometric Drug Discovery Kit); format: biochemical; conditions: for HDAC6 selectivity (fold): HDAC6 over HDAC1; for IC50: human recombinant HDAC6, same protocol as HDAC1
# T2 construct: purchased Calbiochem 382180
# T2 sequence (Q9UBN7 1-1215): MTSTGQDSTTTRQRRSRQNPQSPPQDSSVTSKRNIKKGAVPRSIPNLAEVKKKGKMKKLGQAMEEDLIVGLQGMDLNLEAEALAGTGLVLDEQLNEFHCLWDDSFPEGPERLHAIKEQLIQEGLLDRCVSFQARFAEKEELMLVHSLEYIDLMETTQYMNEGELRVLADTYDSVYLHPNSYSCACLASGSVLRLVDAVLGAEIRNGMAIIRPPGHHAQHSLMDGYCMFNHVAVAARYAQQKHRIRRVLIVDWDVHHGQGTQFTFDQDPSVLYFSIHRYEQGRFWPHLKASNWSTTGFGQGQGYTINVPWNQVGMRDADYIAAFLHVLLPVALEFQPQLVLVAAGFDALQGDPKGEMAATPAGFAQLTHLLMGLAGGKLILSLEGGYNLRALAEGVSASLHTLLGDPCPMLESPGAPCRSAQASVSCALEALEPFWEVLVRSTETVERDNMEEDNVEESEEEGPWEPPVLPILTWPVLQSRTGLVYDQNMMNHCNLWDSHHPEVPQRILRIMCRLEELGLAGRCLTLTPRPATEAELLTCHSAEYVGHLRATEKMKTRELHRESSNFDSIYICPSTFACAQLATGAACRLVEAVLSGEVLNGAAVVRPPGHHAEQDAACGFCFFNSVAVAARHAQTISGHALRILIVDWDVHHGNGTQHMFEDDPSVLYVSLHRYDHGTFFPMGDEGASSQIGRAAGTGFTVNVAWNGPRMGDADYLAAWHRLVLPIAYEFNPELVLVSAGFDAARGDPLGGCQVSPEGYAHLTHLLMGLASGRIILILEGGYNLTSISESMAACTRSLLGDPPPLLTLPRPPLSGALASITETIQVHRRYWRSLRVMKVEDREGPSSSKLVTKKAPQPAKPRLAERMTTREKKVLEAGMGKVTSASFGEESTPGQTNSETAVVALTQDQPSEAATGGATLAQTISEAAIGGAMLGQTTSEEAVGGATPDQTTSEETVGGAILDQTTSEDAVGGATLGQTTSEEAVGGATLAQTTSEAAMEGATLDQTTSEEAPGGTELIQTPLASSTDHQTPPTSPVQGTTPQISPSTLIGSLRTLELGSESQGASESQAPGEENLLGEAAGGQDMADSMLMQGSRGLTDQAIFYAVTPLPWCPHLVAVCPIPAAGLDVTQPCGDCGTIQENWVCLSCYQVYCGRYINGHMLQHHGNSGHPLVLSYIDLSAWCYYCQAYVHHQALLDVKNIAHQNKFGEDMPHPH
# In short: as §1
# T1 sequence (Q13547 whole entry): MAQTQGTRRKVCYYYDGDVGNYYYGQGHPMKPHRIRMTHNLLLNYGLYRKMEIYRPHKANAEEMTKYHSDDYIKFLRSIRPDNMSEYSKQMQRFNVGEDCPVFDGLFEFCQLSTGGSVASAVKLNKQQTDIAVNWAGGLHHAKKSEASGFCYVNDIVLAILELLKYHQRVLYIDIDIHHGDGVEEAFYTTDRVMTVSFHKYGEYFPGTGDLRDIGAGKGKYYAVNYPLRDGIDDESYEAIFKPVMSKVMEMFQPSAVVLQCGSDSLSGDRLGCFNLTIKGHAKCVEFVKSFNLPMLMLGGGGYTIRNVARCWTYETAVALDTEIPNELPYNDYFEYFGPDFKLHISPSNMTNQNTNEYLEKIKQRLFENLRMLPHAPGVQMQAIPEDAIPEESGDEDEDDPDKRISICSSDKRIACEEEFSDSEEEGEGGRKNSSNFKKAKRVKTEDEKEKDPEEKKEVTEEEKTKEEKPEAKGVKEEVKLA
Compound,IC50 (human recombinant HDAC1),HDAC6 selectivity (fold) (human recombinant HDAC6),IC50 (human recombinant HDAC6)
"CN1CCC(c2cccc(-c3nn(Cc4ccc(-c5nnc(C(F)F)o5)cn4)c(=O)s3)c2F)CC1 [Compound 41, 3-[[5-[5-(difluoromethyl)-1,3,4-oxadiazol-2-yl]-2-pyridyl]methyl]-5-[2-fluoro-3-(1-methyl-4-piperidyl)phenyl]-1,3,4-thiadiazol-2-one]",> 50000 nM,909 fold,55 nM
O=c1sc(-c2ccc(CN3CCN(C4CS(=O)(=O)C4)CC3)cc2)nn1Cc1ccc(-c2nnc(C(F)F)o2)cn1 [Compound 68],> 50000 nM,473 fold,106 nM
"FC(F)c1nnc(-c2ccc(Cn3nc(-c4ccc(CN5CCN(C6CCCC6)CC5)cc4)oc3=S)nc2)o1 [Compound 79, 5-[4-[(4-cyclopentylpiperazin-1-yl)methyl]phenyl]-3-[[5-[5-(difluoromethyl)-1,3,4-oxadiazol-2-yl]-2-pyridyl]methyl]-1,3,4-oxadiazol-2-thione]",> 50000 nM,461 fold,108 nM
"FC(F)c1nnc(-c2ccc(Cn3nc(-c4cccc(CN5CC[C@@H](F)C5)c4)oc3=S)nc2)o1 [Compound 89, 3-[[5-[5-(difluoromethyl)-1,3,4-oxadiazol-2-yl]-2-pyridyl]methyl]-5-[3-[[(3R)-3-fluoropyrrolidin-1-yl]methyl]phenyl]-1,3,4-oxadiazol-2-thione]",> 50000 nM,1027 fold,48.7 nM
"CN1CCN(c2nccc(-c3nn(Cc4ccc(-c5nnc(C(F)F)o5)cn4)c(=S)o3)n2)CC1 [Compound 126, 3-[[5-[5-(difluoromethyl)-1,3,4-oxadiazol-2-yl]-2-pyridyl]methyl]-5-[2-(4-methylpiperazin-1-yl)pyrimidin-4-yl]-1,3,4-oxadiazol-2-thione]",> 50000 nM,977 fold,51.2 nM
"CC(C)N1CCN(c2cccc(-c3nn(Cc4ccc(-c5nnc(C(F)F)o5)cn4)c(=S)o3)n2)CC1 [Compound 101, 3-[[5-[5-(difluoromethyl)-1,3,4-oxadiazol-2-yl]-2-pyridyl]methyl]-5-[6-(4-isopropylpiperazin-1-yl)-2-pyridyl]-1,3,4-oxadiazol-2-thione]",> 50000 nM,2538 fold,19.7 nM
"CN1CCN(c2ccc(-c3nn(Cc4ccc(-c5nnc(C(F)F)o5)cn4)c(=O)o3)c(F)c2)CC1 [Compound 24, 3-[[5-[5-(difluoromethyl)-1,3,4-oxadiazol-2-yl]-2-pyridyl]methyl]-5-[2-fluoro-4-(4-methylpiperazin-1-yl)phenyl]-1,3,4-oxadiazol-2-one]",> 50000 nM,487 fold,103 nM
"CNCc1cccc(-c2nn(Cc3ccc(-c4nnc(C(F)F)o4)cn3)c(=S)o2)c1 [Compound 85, 3-[[5-[5-(difluoromethyl)-1,3,4-oxadiazol-2-yl]-2-pyridyl]methyl]-5-[3-(methylaminomethyl)phenyl]-1,3,4-oxadiazol-2-thione]",> 50000 nM,447 fold,112 nM
"Fc1cc(-c2nnc(C(F)F)o2)cnc1Cn1nc(-c2cccnc2)oc1=S [Compound 62, 3-[[5-[5-(difluoromethyl)-1,3,4-oxadiazol-2-yl]-3-fluoro-2-pyridyl]methyl]-5-(3-pyridyl)-1,3,4-oxadiazol-2-thione]",> 50000 nM,500 fold,100 nM
"CC(C)N1CCN(Cc2ccc(-c3nn(Cc4ccc(-c5nnc(C(F)F)o5)cn4)c(=S)o3)cc2)CC1 [Compound 77, 3-[[5-[5-(difluoromethyl)-1,3,4-oxadiazol-2-yl]-2-pyridyl]methyl]-5-[4-[(4-isopropylpiperazin-1-yl)methyl]phenyl]-1,3,4-oxadiazol-2-thione]",> 50000 nM,669 fold,74.7 nM
"O=c1oc(-c2ccc3cc[nH]c3c2)nn1Cc1ccc(-c2nnc(C(F)F)o2)cn1 [Compound 33, 3-[[5-[5-(difluoromethyl)-1,3,4-oxadiazol-2-yl]-2-pyridyl]methyl]-5-(1H-indole-6-yl)-1,3,4-oxadiazol-2-one]",> 50000 nM,1506 fold,33.2 nM
"O=c1sc(-c2cccc(CN3CCN(C4CS(=O)(=O)C4)CC3)c2)nn1Cc1ccc(-c2nnc(C(F)F)o2)cn1 [Compound 65, 3-[[5-[5-(difluoromethyl)-1,3,4-oxadiazol-2-yl]-2-pyridyl]methyl]-5-[3-[[4-(1,1-dioxothietan-3-yl)piperazin-1-yl]methyl]phenyl]-1,3,4-thiadiazol-2-one]",> 50000 nM,537 fold,93.1 nM
"O=c1sc(-c2ccc(C3CCN(C4COC4)CC3)cc2)nn1Cc1ccc(-c2nnc(C(F)F)o2)cn1 [Compound 56, 3-[[5-[5-(difluoromethyl)-1,3,4-oxadiazol-2-yl]-2-pyridyl]methyl]-5-[4-[1-(oxetane-3-yl)-4-piperidyl]phenyl]-1,3,4-thiadiazol-2-one]",> 50000 nM,422 fold,118 nM
"Fc1cc(-c2nnc(C(F)F)o2)cnc1Cn1nc(-c2ccc(CN3CCC3)s2)oc1=S [Compound 130, 5-[5-(azetidine-1-ylmethyl)-2-thienyl]-3-[[5-[5-(difluoromethyl)-1,3,4-oxadiazol-2-yl]-3-fluoro-2-pyridyl]methyl]-1,3,4-oxadiazol-2-thione]",> 50000 nM,750 fold,66.7 nM
"O=c1sc(-c2cccc(C3CCN(C4COC4)CC3)c2F)nn1Cc1ccc(-c2nnc(C(F)F)o2)cn1 [Compound 58, 3-[[5-[5-(difluoromethyl)-1,3,4-oxadiazol-2-yl]-2-pyridyl]methyl]-5-[2-fluoro-3-[1-(oxetane-3-yl)-4-piperidyl]phenyl]-1,3,4-thiadiazol-2-one]",> 50000 nM,643 fold,77.8 nM
"O=c1oc(-c2ccsc2)nn1Cc1ccc(-c2nnc(C(F)F)o2)cn1 [Compound 16, 3-[[5-[5-(difluoromethyl)-1,3,4-oxadiazol-2-yl]-2-pyridyl]methyl]-5-(3-thienyl)-1,3,4-oxadiazol-2-one]",> 50000 nM,551 fold,90.8 nM
"O=c1oc(-c2ccc(CN3CCCCC3)cc2)nn1Cc1ccc(-c2nnc(C(F)F)o2)cn1 [Compound 133, 3-[[5-[5-(difluoromethyl)-1,3,4-oxadiazol-2-yl]-2-pyridyl]methyl]-5-[4-(1-piperidylmethyl)phenyl]-1,3,4-oxadiazol-2-one]",> 50000 nM,442 fold,113 nM
"CN1CCN(c2ccc(-c3nn(Cc4ccc(-c5nnc(C(F)F)o5)cn4)c(=O)o3)cc2)CC1 [Compound 21, 3-[[5-[5-(difluoromethyl)-1,3,4-oxadiazol-2-yl]-2-pyridyl]methyl]-5-[4-(4-methylpiperazin-1-yl)phenyl]-1,3,4-oxadiazol-2-one]",> 50000 nM,446 fold,112 nM
"CC(C)N1CCC(c2cccc(-c3nn(Cc4ccc(-c5nnc(C(F)F)o5)cn4)c(=O)s3)c2F)CC1 [Compound 57, 3-[[5-[5-(difluoromethyl)-1,3,4-oxadiazol-2-yl]-2-pyridyl]methyl]-5-[2-fluoro-3-(1-isopropyl-4-piperidyl)phenyl]-1,3,4-thiadiazol-2-one]",> 50000 nM,954 fold,52.4 nM
